Experimental findings from BindingDB's records for patent US11583538 (Venenum Biodesign, 2023) are described below.

In the assay the target is T1, Three-prime repair exonuclease 1 (Homo sapiens, UniProt Q9NSU2).
T1 sequence (Q9NSU2 whole entry): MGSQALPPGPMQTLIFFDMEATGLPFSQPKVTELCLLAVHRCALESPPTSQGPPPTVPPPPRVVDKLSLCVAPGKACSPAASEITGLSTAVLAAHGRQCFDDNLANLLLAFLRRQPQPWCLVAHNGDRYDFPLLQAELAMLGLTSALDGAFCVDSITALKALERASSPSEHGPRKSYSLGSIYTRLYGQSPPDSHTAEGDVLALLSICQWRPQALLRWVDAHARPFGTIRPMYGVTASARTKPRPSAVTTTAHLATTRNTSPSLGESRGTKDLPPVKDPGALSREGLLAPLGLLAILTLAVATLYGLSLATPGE
Put plainly: TREX1 Exonuclease Assay. The procedure: For human TREX1, the nucleotide sequence of the gene construct was codon optimized for expression in the bacterial host. The sequence was incorporated into the pMAL-c5e vector (NEB) downstream of a solubility-promoting MBP (maltose binding protein) fusion partner. The fusion protein product was expressed in E. coli strain BL21 (DE3) (Millipore) and purified in a series of chromatographic steps. Initial steps were conducted using a dextrin sepharose affinity column followed by a Q-sepharose ion exchange column (both GE Healthcare). After the second column the MBP partner was removed by incubation with enterokinase (NEB). Further purification was carried out with the second application of a Q-sepharose column followed by a Superdex 75 (GE Healthcare) size exclusion column. Finally, a heparin sepharose column (GE Healthcare) was applied to remove contaminating nucleotides. […] Next, 4 μL of human TREX1 (0.5 nM), or murine TREX1 (1 nM), diluted in assay buffer (20 mM Tris pH 7.5, 5 mM MgCl, 100 μg/mL BSA, 0.002% Triton X-100, 2 mM DTT), was added to the assay plate. After incubating for 30 minutes, 4 μL of labeled DNA oligonucleotide (500 nM) in assay buffer was added to initiate TREX1 exonuclease activity. The reaction was allowed to proceed for 45 minutes at room temperature prior to the addition of 4 μL of 150 mM EDTA to halt TREX1 activity.

pIC50: −log10 of the molar value.

Take `N[C@@H]1C[C@H]2C(=O)N([C@@H](CCC(=O)O)C(=O)NCc3ccc(Cl)c(Cl)c3)CCC(CCc3ccccc3)N2C1` (stereo not given in full) [US11583538, Example 29]: the negative logarithm of the IC50 (pIC50) (in general, the IC50 on a negative log10 scale, so that one unit is a factor of ten) was greater than 6.00.

In the case of `N[C@@H]1C[C@H]2C(=O)N([C@H](CCC(=O)O)C(=O)NCc3ccc(Cl)c(Cl)c3)CCC(COc3cccc(F)c3)N2C1` (stereo not given in full) [US11583538, Example 77], the negative-log IC50 (pIC50) was greater than 6.00.

`N[C@@H]1C[C@H]2C(=O)N([C@H](CCC(=O)O)C(=O)NCc3ccc(Cl)c(Cl)c3)CCC(COc3ccccc3F)N2C1` (stereo not given in full) [US11583538, Example 79] showed a pIC50 greater than 6.00.

`CC(C)C[C@H](CNS(=O)(=O)c1ccc(Cl)c(Cl)c1)N1CCC(CCc2ccccc2)N2C[C@H](N)C[C@H]2C1=O` (stereo not given in full) [US11583538, Example 81] gave a pIC50 greater than 6.00.

The compound `N[C@@H]1C[C@H]2C(=O)N([C@@H]3CCCN(S(=O)(=O)c4ccc(Cl)c(Cl)c4)C3)CCC(CCc3ccccc3)N2C1` (stereo not given in full) [US11583538, Example 83] gave a pIC50 greater than 6.00.

In the case of `COC(=O)CC[C@H](C(=O)NCc1ccc(Cl)c(Cl)c1)N1CCC(COc2cccc(F)c2)N2C[C@H](N)C[C@H]2C1=O` (stereo not given in full) [US11583538, Example 90], the pIC50 is greater than 6.00.

Regarding `COC(=O)CC[C@H](C(=O)NCc1ccc(Cl)c(Cl)c1)N1CCC(COc2ccc(F)cc2)N2C[C@H](N)C[C@H]2C1=O` (stereo not given in full) [US11583538, Example 91], the pIC50 is greater than 6.00.

Consider `CCOC(=O)CC[C@H](C(=O)NCc1ccc(Cl)c(Cl)c1F)N1CCC(CCc2ccccc2)N2C[C@H](N)C[C@H]2C1=O` (stereo not given in full) [US11583538, Example 93], for which the pIC50 was greater than 6.00.

`CCOC(=O)CC[C@H](C(=O)NCc1ccc(Cl)c(Cl)n1)N1CCC(CCc2ccccc2)N2C[C@H](N)C[C@H]2C1=O` (stereo not given in full) [US11583538, Example 95] showed a negative-log IC50 (pIC50) greater than 6.00.

`N[C@@H]1C[C@H]2C(=O)N([C@H](CCC(=O)NO)C(=O)NCc3ccc(Cl)c(Cl)c3)CCC(COc3cccc(F)c3)N2C1` (stereo not given in full) [US11583538, Example 114] showed a pIC50 greater than 6.00.

Compound `N[C@@H]1C[C@H]2C(=O)N([C@H](CSc3ccccc3O)C(=O)NCc3ccc(Cl)c(Cl)c3)CCC(CCc3ccccc3)N2C1` (stereo not given in full) [US11583538, Example 123] had a pIC50 greater than 6.00.

`N[C@@H]1C[C@H]2C(=O)N([C@H](CS(=O)(=O)c3ccccc3O)C(=O)NCc3ccc(Cl)c(Cl)c3)CCC(CCc3ccccc3)N2C1` (stereo not given in full) [US11583538, Example 124] showed a pIC50 greater than 6.00.

For the compound `CC(C)C[C@H](C(=O)NCc1ccc(Cl)c(Cl)c1)N1CCC(C[S+]([O-])c2ccccc2)N2C[C@H](N)C[C@H]2C1=O` (stereo not given in full) [US11583538, Example 125A], the pIC50 is greater than 6.00.

In turn, `N[C@@H]1C[C@H]2C(=O)N([C@H](CCNC(=O)C3CC3)C(=O)NCc3ccc(Cl)c(Cl)c3)CCC(CCc3ccccc3)N2C1` (stereo not given in full) [US11583538, Example 130] had a pIC50 greater than 6.00.

As to `N[C@@H]1C[C@H]2C(=O)N([C@H](CCC(=O)O)C(=O)NCc3cc(Cl)c(Cl)c[n+]3[O-])CCC(CCc3ccccc3)N2C1` (stereo not given in full) [US11583538, Example 134], the pIC50 was greater than 6.00.
